According to PMC3828334, “Tumor Cell Death Mediated by Peptides That Recognize Branched Intermediates of DNA Replication and Repair” (PLoS ONE, 2013):
Positions of bridges follow the written chain, without caps; N, C: chain ends. Non-standard residues stand in square brackets, D forms with d. Residues, ends and D or L forms follow the SMILES beside them. Chains are numbered I, II in the order given.

Columns and labels:
DuPro-1 cells = format: cell-based; conditions: MTT, DuPro-1 cells, 48 h
γH2AX in PC3 cells = assay: γH2AX foci by microscopy and flow cytometry; format: cell-based; conditions: PC3, 200 µM, flow cytometry
Method: DAPI (5 μg/ml) was used to stain the nucleus. The stained cells on the coverslips were mounted on the glass slides and observed with a Zeiss inverted microscope with AxioVision 4.8 software and using the 100× magnification. Foci of 53BP1 were counted manually and the average number of foci per cell was calculated. […] They were subsequently treated with either 50-200 μM […] or 50-100 μM […] or 0.5-1 μM doxorubicin or combination treatment for 0, 12, 24, 36 and 48 h. […] Samples were analyzed using a Becton Dickinson FACS Canto flow cytometer at a forward scatter voltage of 25 V, side-scatter voltage of 400 V, and FITC channel at a voltage of 400 V.

PPC-1 cells = assay: MTT assay of cell viability, PPC-1; format: cell-based; conditions: 48 h
HeLa cells = assay: TUNEL assay, HeLa, with z-VAD-fmk or z-FA-fmk; format: cell-based; conditions: 24 h
Method: 600,000 PC3 cells or 500,000 HeLa cells were plated in 60-mm dishes or 6-well plates respectively to allow them to attach overnight at 37°C with 5% CO2. PC3 cells were subsequently treated with appropriate treatments for 24, 36 and 48 h while HeLa cells were treated with 1 µl of either the caspase inhibitor z-VAD-fmk or z-FA-fmk (both from Biovision), containing appropriate treatments, for 24 h. The cells were fixed with 4% paraformaldehyde for 30 min and permeabilized with 0.1% Triton X-100 in 0.1% sodium citrate buffer for 3 mins. Labeled dUTP were added along with the terminal deoxynucleotidyl transferase dUTP nick end labeling (TUNEL) (TUNEL kit from Roche) as described in the kit. Samples were analyzed using a Becton Dickinson FACS Canto flow cytometer as specified above.

[1] = system: U2OS cell lines vs IMR 90 cells; conditions: cited from earlier work
Source text: A major challenge of cancer treatment is drug delivery. The intact cell membrane protects the cellular components from its surroundings, restricting hydrophilic molecules from entering the cell and allowing only small molecules to cross the membrane. The presence of hydrophobic and basic amino acid residues in peptide wrwycr probably helps it cross the cancer cell membrane more efficiently than normal cells, similar to the cell penetrating peptides (CPPs).

Du145 cells = format: cell-based; conditions: 24 h
[2] = system: Holliday junctions vs replication forks; conditions: in vitro; ref [20], [22], [26]; cited from earlier work
Source text: Our laboratory previously identified peptides and small molecules that bind to Holliday junctions and replication fork mimics, branched DNA structures that are intermediates in DNA repair [18]–[23]. […] In addition to binding HJs in vitro, peptide wrwycr also binds Holliday junctions in vivo [24] and is synergistically toxic with DNA-damaging agents including mitomycin C, UV, H2O2, and topoisomerase inhibitors in bacteria ([25]; Naili, ...

[3] = system: GRP78 promoter in HeLa cells; assay: Luciferase reporter assay for ER stress; format: cell-based; conditions: 24 h
Method: HeLa cells were transfected with either either 15 µg of plasmid DJT208, carrying the GRP78 promoter (pGRP78) driving the ER-stress response elements ERSE 1, ERSE 2 and ERSE 3 upstream of the luciferase gene, or 15 µg of the plasmid GL2P, carrying the luciferase gene driven by the SV40 promoter (pSV40). All cells were also co-transfected with 10 µg of the PB1 plasmid, carrying the β-galactosidase reporter transcribed by the SV40 promoter, as a transfection control. [The plasmids were generous gifts from Dr. Peter Belmont from Christopher Glembotski's Lab in SDSU]. After 24 h the cells were treated with increasing concentrations of wrwycr (100, 150 and 200 µM) for 24 h and the luciferase activity was measured using an OptocompII Luminometer. Tunicamycin (TM), a known inducer of ER stress, was used as a positive control for the experiment ER stress was calculated as the fold increase of luciferase gene expression from the GRP78 promoter over that from the SV40 promoter of pGL2P for the different concentrations of the peptide over DMSO, which is the solvent for the peptide, or over the media in the case of TM.

[4] = system: Htog1 cells (variant of HeLa cells); assay: Cytochrome C release / TMRE assay for apoptosis; format: cell-based; conditions: 24 h, confocal microscopy
Method: 200,000 Htog1 cells (variant of HeLa cells, a generous gift from Drs. Terrence Frey and Maria Guo) were seeded on cover slips mounted on 35 mm microwell petri dishes (Mattek Corp, Ashland, MA) with DMEM supplemented with 10% FBS and allowed to attach overnight at 37°C in 5% CO2. The media was replaced with 1 ml of the appropriate treatment and incubated for 24 h. After 23 h of treatment, 50 µM tetramethyl rhodamine ethyl ester perchlorate (TMRE) solution was added to each well (final concentration 50 nM) and incubated for the remaining hour. Cytochrome C release and loss of TMRE staining were determined in Z-series images acquired using a Leica TCS SP2 inverted confocal microscope. GFP was excited using 488 nm wavelength from an Ar/Kr laser attenuated to 33%, and the emitted fluorescence detected at 497–553 nm. TMRE fluorescence was excited using a 543 nm wavelength from an Ar/Kr laser attenuated to 35%, and the emitted fluorescence detected at 555–620 nm. Each cell was analyzed for release of GFP (GFP channel), loss of mitochondrial membrane potential (TMRE loss) or morphological abnormalities associated with apoptosis, and the % cells positive for each hallmark was calculated for the various treatments.

PC3 cells = assay: Cell cycle analysis (PI, flow cytometry); format: cell-based; conditions: PC3, 200 µM, 48 h or 72 h, 2 independent experiments; DMSO 14%
Method: 600,000 PC3 cells were plated in 60-mm dishes at a concentration of 200,000 cells/ml and allowed to attach before they were serum-starved for 48 h by adding RPMI with no supplemented FBS. The cells were then treated in 100, 150 or 200 µM wrwycr in RPMI supplemented with 10% FBS for either 48 h or 72 h followed by permeabilization with cold 70% ethanol overnight. RNase/PI solution (BD Pharmingen) were added to the cells following the protocol in [33] and incubated for 2.5 h at 37°C and analyzed using the PerCP-Cy5-5 channel in a FACS Canto flow cytometer. The results were analyzed using Flow-Jo software.

- IC50 (Du145 cells): 150 to 200 µM
SMILES: N=C(N)NCCC[C@@H](NC(=O)[C@@H](CSSC[C@@H](NC(=O)[C@@H](Cc1ccc(O)cc1)NC(=O)[C@@H](Cc1c[nH]c2ccccc12)NC(=O)[C@@H](CCCNC(=N)N)NC(=O)[C@H](N)Cc1c[nH]c2ccccc12)C(=O)N[C@H](CCCNC(=N)N)C(N)=O)NC(=O)[C@@H](Cc1ccc(O)cc1)NC(=O)[C@@H](Cc1c[nH]c2ccccc12)NC(=O)[C@@H](CCCNC(=N)N)NC(=O)[C@H](N)Cc1c[nH]c2ccccc12)C(N)=O [wrwycr, Trp-Arg-Trp-Tyr-Cys-Arg] (I: H-[dW][dR][dW][dY][dC][dR]-NH2 / II: H-[dW][dR][dW][dY][dC][dR]-NH2; disulfide I:5-II:5; N-terminus assumed)
- IC50 (DuPro-1 cells): the same IC50 as the PC3 cell line
- γH2AX positive cells (γH2AX in PC3 cells; after 36–48 h): 20–35%
- γH2AX positive cells (γH2AX in PC3 cells; between 12–24 h): 2–5%
- IC50 (PPC-1 cells): the same IC50 as the PC3 cell line
- TUNEL-positive cells (HeLa cells; 100 µM wrwycr): 13%
- TUNEL positive cells with caspase inhibitor z-VAD-fmk versus mock inhibitor z-FA-fmk (HeLa cells): No significant difference
- uptake in U2OS cell lines relative to non-tumor derived IMR 90 cells [1]: 3 ×
- higher affinity for HJs than replication forks [2]: 2–5 fold
- pGRP78/pSV40 ([3]; 100 µM, ER stress as fold increase GRP78 promoter over SV40 promoter): 0.84±0.1
- pGRP78/pSV40 ([3]; 150 µM): 1.02±0.44
- pGRP78/pSV40 ([3]; 200 µM): 0.87±0.06
- induction of expression of the GRP78 promoter ([3]; 100–200 µM): did not induce expression of the GRP78 promoter
- cytochrome C release or loss of TMRE [4]: little or no cytochrome C release or loss of TMRE
- percentage of the S phase cellular population (PC3 cells): 50%
